Two compounds from paper PMC10412597, “Small molecule branched-chain ketoacid dehydrogenase kinase (BDK) inhibitors with opposing effects on BDK protein levels” (Nature Communications, 2023) can be followed below.

Parameters in all cases: Invitrogen kinase panel, per cent inhibition of kinase activity
The target in one test is SRPK1 (Homo sapiens, UniProt Q96SB4). The following applies: 10 µM, inhibitor. The protocol:
(§1) To discover a potent and selective BDK inhibitor, a subset of the Pfizer compound collection was screened. […] Off target activity was assessed in both CEREP and kinase panels (Supplementary Tables 2, 3).

The target of another test is T1, JNK1 (Homo sapiens, UniProt P45983).
T1 construct: gene MAPK8
The following applies: 10 µM, inhibitor. The protocol:
as §1

A further test concerns the target T2, Rsk1 (Homo sapiens, UniProt Q15418).
T2 construct: gene RPS6KA1
The following applies: 10 µM, inhibitor. On the procedure:
as §1

Another test has as its target T3, AURKA (Homo sapiens, UniProt O14965).
T3 sequence (O14965 1-403): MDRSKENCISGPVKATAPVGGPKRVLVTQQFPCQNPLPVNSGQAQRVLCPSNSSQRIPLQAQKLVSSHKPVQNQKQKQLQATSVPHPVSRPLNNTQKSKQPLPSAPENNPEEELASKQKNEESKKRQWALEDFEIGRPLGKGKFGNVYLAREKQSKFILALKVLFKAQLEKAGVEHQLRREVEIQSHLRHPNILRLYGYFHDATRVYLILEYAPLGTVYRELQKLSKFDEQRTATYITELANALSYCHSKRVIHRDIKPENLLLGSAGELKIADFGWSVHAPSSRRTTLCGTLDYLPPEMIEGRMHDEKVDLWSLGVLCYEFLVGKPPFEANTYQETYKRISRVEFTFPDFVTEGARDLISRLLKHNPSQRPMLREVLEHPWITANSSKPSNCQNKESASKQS
As to conditions: 10 µM, inhibitor. The protocol:
as §1

Another test addresses TEK (Homo sapiens, UniProt Q02763). The following applies: 10 µM, inhibitor. The protocol:
as §1

For the next test, the target named is T4, TAOK2 (Homo sapiens, UniProt Q9UL54).
T4 sequence (Q9UL54 1-1235): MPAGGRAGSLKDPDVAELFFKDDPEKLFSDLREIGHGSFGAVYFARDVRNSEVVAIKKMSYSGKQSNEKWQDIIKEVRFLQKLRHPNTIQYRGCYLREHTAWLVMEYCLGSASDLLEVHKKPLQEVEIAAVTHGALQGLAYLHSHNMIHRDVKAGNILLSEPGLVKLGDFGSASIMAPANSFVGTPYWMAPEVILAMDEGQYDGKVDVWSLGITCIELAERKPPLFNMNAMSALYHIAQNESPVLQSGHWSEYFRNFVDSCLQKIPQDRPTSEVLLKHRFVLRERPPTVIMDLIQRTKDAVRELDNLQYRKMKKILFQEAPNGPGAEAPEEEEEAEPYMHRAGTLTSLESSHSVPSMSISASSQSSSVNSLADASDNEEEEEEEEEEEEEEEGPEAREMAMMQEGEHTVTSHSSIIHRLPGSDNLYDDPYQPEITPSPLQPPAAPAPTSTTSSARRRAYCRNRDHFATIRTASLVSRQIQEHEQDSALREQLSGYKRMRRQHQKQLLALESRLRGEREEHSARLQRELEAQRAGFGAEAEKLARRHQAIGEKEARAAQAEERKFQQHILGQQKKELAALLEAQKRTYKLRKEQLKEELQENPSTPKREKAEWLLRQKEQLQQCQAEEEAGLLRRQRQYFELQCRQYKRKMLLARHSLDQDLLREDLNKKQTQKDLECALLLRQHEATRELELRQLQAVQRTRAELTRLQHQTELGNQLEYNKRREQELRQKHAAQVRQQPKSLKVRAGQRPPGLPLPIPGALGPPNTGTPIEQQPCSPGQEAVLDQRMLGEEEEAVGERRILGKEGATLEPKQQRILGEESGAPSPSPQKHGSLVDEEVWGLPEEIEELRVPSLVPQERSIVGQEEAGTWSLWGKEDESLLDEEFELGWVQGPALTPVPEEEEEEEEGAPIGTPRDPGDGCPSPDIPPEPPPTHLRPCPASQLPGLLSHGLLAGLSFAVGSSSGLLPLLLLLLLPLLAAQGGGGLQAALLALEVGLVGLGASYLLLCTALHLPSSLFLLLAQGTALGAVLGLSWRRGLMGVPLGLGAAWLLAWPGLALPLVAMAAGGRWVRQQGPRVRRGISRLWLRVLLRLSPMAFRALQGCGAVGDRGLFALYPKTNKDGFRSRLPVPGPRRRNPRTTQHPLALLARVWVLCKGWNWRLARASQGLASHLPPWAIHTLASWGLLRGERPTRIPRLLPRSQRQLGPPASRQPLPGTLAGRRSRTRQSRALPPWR
The following applies: 10 µM, inhibitor. On the procedure:
as §1

The next test addresses PIK3CB (Homo sapiens, UniProt P42338). As to conditions: 10 µM, inhibitor. On the procedure: as §1
Test [1] deals with T5, IkB kinase beta subunit (IKK BETA) (Homo sapiens, UniProt O14920).
T5 construct: gene IKBKB
As to conditions: 10 µM, inhibitor. On the procedure:
as §1

In a further test the target is MAPKAPK2 (Homo sapiens, UniProt P49137). As to conditions: 10 µM, inhibitor. On the procedure:
as §1

A further test deals with MET (Homo sapiens, UniProt P08581). The following applies: 10 µM, inhibitor. The protocol: as §1
The target in another test is LCK (Homo sapiens, UniProt P06239). As to conditions: 10 µM, inhibitor. On the procedure: as §1
The next test deals with CHEK2 (Homo sapiens, UniProt O96017). The following applies: 10 µM, inhibitor. The protocol:
as §1

The next test addresses SPHK2 (Homo sapiens, UniProt Q9NRA0). As to conditions: inhibitor. On the procedure: as §1

Sequence of MET (P08581 whole entry): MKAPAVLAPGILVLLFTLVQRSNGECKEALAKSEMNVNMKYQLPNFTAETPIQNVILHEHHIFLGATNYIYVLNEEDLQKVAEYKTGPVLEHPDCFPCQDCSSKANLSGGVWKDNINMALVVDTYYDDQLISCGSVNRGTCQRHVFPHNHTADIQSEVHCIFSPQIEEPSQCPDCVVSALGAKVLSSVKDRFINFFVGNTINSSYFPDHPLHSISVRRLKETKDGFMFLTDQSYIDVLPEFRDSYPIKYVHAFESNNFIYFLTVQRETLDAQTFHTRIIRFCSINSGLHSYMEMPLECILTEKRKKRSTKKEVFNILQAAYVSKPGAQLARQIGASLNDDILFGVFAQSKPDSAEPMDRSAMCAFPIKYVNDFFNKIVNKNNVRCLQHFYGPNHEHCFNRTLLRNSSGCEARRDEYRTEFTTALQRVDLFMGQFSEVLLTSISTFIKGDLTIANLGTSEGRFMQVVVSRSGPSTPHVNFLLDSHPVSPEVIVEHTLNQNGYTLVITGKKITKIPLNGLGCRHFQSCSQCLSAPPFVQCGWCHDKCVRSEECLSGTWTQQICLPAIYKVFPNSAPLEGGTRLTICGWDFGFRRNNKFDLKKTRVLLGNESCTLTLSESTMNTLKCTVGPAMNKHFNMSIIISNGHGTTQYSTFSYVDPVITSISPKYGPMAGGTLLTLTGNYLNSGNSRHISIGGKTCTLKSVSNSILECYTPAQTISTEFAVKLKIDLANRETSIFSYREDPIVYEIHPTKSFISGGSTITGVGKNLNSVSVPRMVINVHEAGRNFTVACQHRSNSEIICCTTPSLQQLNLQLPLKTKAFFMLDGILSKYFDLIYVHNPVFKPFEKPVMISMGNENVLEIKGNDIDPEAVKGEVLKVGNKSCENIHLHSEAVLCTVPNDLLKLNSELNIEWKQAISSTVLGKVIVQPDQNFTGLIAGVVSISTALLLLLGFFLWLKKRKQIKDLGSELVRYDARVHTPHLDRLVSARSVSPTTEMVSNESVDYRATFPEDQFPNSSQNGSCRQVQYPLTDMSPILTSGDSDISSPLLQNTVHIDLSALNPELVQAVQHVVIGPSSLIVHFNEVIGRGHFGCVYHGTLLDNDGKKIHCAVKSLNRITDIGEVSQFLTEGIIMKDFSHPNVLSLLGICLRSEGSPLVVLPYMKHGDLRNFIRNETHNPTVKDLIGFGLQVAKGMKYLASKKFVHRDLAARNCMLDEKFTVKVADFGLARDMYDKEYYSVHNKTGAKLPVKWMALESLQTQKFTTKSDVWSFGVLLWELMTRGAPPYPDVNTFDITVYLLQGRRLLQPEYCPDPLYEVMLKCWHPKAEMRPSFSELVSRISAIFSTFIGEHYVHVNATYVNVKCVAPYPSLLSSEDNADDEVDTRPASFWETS
Sequence of CHEK2 (O96017 whole entry): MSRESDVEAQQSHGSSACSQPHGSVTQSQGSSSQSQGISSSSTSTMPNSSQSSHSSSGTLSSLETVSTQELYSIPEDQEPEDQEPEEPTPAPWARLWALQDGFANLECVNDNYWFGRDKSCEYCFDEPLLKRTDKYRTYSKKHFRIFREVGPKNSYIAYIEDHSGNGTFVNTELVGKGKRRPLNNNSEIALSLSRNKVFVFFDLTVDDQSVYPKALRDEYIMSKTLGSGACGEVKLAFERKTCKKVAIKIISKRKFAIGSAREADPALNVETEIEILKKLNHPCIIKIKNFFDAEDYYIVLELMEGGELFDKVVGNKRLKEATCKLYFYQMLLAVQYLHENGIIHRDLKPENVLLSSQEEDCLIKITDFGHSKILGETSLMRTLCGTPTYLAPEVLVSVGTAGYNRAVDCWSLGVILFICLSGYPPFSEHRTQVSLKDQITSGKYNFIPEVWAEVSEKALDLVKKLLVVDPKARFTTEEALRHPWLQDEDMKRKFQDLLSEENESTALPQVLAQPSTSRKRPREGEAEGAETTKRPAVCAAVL
Sequence of LCK (P06239 whole entry): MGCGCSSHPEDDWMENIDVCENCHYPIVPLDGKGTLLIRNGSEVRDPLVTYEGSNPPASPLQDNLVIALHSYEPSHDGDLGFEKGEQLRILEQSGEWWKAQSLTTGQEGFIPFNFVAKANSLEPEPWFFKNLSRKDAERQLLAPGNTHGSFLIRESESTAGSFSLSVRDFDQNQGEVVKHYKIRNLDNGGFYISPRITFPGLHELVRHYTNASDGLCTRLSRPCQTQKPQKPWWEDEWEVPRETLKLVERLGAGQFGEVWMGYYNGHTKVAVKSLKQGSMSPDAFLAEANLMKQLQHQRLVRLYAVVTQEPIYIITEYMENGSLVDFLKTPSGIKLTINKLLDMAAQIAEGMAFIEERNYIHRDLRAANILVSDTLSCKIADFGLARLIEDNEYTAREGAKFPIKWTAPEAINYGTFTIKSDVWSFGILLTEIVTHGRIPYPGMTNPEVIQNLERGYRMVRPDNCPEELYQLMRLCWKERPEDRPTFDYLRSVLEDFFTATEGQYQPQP
Sequence of TEK (Q02763 whole entry): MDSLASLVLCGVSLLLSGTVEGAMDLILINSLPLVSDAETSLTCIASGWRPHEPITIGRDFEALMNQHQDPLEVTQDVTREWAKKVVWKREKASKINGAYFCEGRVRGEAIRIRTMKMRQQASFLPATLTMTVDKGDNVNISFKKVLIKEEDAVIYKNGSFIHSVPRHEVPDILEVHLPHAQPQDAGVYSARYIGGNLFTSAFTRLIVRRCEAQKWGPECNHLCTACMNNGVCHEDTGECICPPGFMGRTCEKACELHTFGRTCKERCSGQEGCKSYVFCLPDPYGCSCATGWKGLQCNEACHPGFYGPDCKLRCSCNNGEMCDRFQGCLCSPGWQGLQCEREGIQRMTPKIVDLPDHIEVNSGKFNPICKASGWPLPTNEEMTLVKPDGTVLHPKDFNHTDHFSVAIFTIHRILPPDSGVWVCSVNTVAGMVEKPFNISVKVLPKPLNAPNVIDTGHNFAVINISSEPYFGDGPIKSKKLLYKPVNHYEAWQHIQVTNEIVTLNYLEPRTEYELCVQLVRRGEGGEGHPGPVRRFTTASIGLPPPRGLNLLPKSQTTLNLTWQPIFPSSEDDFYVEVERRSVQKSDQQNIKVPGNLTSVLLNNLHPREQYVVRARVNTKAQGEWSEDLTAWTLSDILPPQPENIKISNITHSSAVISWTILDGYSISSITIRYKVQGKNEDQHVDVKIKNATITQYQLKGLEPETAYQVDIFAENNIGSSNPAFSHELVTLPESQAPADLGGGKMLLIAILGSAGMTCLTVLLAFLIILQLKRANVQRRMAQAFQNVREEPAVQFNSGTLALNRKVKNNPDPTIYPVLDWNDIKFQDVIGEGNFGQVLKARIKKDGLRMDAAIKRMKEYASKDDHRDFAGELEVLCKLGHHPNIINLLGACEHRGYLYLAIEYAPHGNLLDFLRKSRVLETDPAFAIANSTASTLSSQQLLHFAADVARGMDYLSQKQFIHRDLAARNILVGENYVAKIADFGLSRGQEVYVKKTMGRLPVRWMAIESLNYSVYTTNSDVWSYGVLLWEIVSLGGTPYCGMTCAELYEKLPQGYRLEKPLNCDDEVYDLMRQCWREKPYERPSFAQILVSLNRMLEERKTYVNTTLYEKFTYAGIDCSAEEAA
Sequence of MAPKAPK2 (P49137 whole entry): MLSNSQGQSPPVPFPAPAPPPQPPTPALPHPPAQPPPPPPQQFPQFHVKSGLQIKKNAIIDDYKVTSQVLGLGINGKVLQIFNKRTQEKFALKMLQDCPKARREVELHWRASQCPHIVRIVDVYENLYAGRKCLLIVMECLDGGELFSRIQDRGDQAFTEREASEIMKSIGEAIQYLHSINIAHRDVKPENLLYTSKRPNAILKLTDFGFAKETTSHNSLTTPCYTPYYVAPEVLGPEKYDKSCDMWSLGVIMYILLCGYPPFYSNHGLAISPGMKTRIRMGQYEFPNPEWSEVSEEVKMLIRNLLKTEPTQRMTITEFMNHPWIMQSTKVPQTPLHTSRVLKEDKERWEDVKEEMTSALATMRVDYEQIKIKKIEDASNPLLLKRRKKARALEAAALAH
T5 sequence (O14920 whole entry): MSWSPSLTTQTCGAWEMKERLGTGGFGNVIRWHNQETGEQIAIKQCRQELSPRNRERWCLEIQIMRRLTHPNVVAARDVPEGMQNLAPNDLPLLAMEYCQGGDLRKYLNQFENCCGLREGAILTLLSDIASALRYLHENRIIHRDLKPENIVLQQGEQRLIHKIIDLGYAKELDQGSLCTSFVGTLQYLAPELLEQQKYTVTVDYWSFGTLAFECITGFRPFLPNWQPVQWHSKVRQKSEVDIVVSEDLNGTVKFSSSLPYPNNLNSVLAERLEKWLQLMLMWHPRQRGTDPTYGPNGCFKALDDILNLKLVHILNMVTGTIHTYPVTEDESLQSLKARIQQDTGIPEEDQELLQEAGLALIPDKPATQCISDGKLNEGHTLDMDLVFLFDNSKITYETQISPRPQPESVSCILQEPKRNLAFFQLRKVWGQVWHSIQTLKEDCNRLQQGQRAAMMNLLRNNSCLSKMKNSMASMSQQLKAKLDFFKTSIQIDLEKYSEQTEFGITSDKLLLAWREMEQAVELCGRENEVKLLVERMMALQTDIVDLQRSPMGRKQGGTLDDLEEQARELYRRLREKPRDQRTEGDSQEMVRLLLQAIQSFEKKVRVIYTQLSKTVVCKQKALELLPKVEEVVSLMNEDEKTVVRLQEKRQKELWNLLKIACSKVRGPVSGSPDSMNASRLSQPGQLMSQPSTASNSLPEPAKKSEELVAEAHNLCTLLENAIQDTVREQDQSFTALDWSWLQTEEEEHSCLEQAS

For `O=C(O)c1sc2cc(F)sc2c1Cl` [PF-07208254, 3-chloro-5-fluorothieno[3,2-b]thiophene-2-carboxylic acid], the “ATP = Km % Inhibition PF-07208254” value on SRPK1 is listed as 2.8%; on Rsk1, 3.3%; on AURKA, 9.4%; on TEK, 0.3%; at TAOK2 it was -2.5%; on PIK3CB, 3.1%. Besides, the “ATP = Km % Inhibition PF-07208254” value in test [1] was 4.8%; at MAPKAPK2 it was 3.4%; on MET it was -3.1%; at LCK it was 20.6%; on CHEK2, 6.7%. Further, the “ATP = 100 uM % Inhibition PF-07208254” value on JNK1 is -0.6%. The “ATP = 1 mM % Inhibition PF-07208254” value at AURKA was -2.6%; at TEK it was 0.7%; on TAOK2 it was 1.4%; at MAPKAPK2 it was -1.5%; at MET, -10.2%; on LCK it was 9.9%. On CHEK2, the “ATP = 1 mM % Inhibition PF-07208254” value is on record as -0.7%. For the same compound, the “ATP = 10 uM % Inhibition PF-07208254” value on SPHK2 is on record as -11.8%.
Take `CCC1(COc2ccc(-c3csc(-c4ccccc4C(=O)O)n3)cn2)CC1` [PF-07247685, 2-(4-{6-[(1-ethylcyclopropyl)methoxy]pyridin-3-yl}-1,3-thiazol-2-yl)benzoic acid]: the “ATP = Km % Inhibition PF-07247685” value on SRPK1 is reported as 12.6%; on Rsk1, 2.4%; on AURKA, 8.9%; at TEK it was 0.6%; at TAOK2 it was -4.7%; at PIK3CB, -3.5%. Also, the “ATP = Km % Inhibition PF-07247685” value was -0.0% in test [1]; 2.2% at MAPKAPK2; -0.3% on MET; 5.9% at LCK; 3.8% at CHEK2. For the same compound, the “ATP = 100 uM % Inhibition PF-07247685” value at JNK1 stood at 2.1%. For the same compound, the “ATP = 1 mM % Inhibition PF-07247685” value is 2.2% on AURKA; 8.6% at TEK; -1.8% on TAOK2; 3.3% at MAPKAPK2; -2.2% at MET; 3.0% on LCK. The “ATP = 1 mM % Inhibition PF-07247685” value on CHEK2 was -0.2%. Further, the “ATP = 10 uM % Inhibition PF-07247685” value at SPHK2 is 3.9%.
